Test: Inhibition of the release of Alpha-amylase from rat pancreatic acinar cells.

SMILES | IC50
CCN(CC)CCCCCOC(=O)C(C)(c1ccccc1)C1CCCCC1 (centres undefined) | 2700 nM
CN(C)CCCOC(=O)C(C)(c1ccccc1)C1CCCCC1 (centres undefined) | 10 nM
CCN(CC)CCCOC(=O)C(C)(c1ccccc1)C1CCCCC1 (centres undefined) | 21 nM
CCN(CC)CCOC(=O)C(C)(c1ccccc1)C1CCCCC1 (centres undefined) | 52 nM
